Columns and labels:
MCAO rats [1] = test: Cerebral infarct volume (TTC staining) in rat MCAO ischemia-reperfusion model; format: in vivo; conditions: for extent of cerebral infarction compared with the model group: 24 h, t-test versus model group, doses as in Table 2; for Percentage of cerebral infarction volume (%): 24 hours after MCAO ischemia, tail vein, single dose, n=10
MCAO rats [2] = test: Neurological deficit scoring (Longa method) in rat MCAO ischemia-reperfusion stroke model; conditions: for neurological symptoms of rats compared with the model group: 24 h postoperatively, t-test versus model group, doses as in Table 1; for Score 2h: neurological deficit score 2 h after ischemia (administration started at reperfusion after 2 h); for Score 2h / Score 24h: tail vein, single dose, n=10; for Score 24h: neurological deficit score 24 h post-surgery
Protocol: Administration was initiated upon reperfusion after 2 hours of ischemia. The model and the sham operation group were given an equal volume 5% glucose injection solution via tail vein injection, while the other groups were injected with the corresponding drugs via tail vein, each with a single dose. […] Performing modeling surgery: The rat MCAO model was established with reference to the Longa intraluminal filament occlusion method. Nylon monofilament was cut into 2 cm lengths, the tip was dipped into a tiny amount of molten paraffin, after cooling, the ends of the nylon threads were completely wrapped for later use. The rats were completely anesthetized with 3% sodium pentobarbital (30 mg/kg), and placed supine, and secured on a surgical board. The cervical skin was prepared and disinfected, a 2-cm mid line incision was made. The left common carotid artery was bluntly isolated, and the external and internal carotid arteries were dissected free along the common carotid artery. The distal ends of the common carotid artery and the external carotid artery were ligated, and the internal carotid artery was occluded using hemostatic forceps. A small arteriotomy was made in the common carotid artery and the prepared nylon monofilament was inserted through the opening. The wax-coated tip was inserted into the common carotid artery and advanced into the internal carotid artery, the hemostat was released, and the advancement of the wax tip was stopped when it was 13-16 mm from the opening. The filament was secured, and the cervical incision was closed. After 2 h of occlusion, rats were anesthetized and the filament was withdrawn. In the sham operation group, rats were completely anesthetized with only 3% sodium pentobarbital. After cervical skin preparation and incision, the common carotid artery was bluntly isolated, and the wound immediately closed, without filament insertion. […] Neurological deficit scoring: scoring time: before modeling, 2 h after ischemia, and 24 h post-surgery, all surviving animals were scored in a blinded manner using a modified neurological deficit score. The scoring criteria of Longa's method were as follows: 0: normal neurological function; 1: mild neurological deficit: when suspended by the tail, the animal's left forelimb was flexed; 2: moderate neurological deficit: when placed on a smooth surface, the animal circles to the left side while walking; 3: moderate neurological deficit: at rest, the animal leans to the left side; 4: depressed consciousness with no spontaneous limb movements; 5: unresponsive to stimuli or death. […] Result analysis: The t-test was used to compare the behavioral test scores between groups.

[3] = tested on: platelet aggregation in rats; test: ADP-induced platelet aggregation in platelet-rich plasma of rats after oral gavage; format: in vivo; conditions: for Maximum platelet aggregation rate (%): blood taken 3 hours after gavage, 20µM ADP, platelet-rich plasma, n=10; for platelet aggregation rate compared with the solvent control group: significance versus solvent control group, doses as in Table 3
Protocol: After oral gavage administration for 3 hours on the same day, blood was collected from the abdominal aorta to obtain platelet-rich plasma from each group. Platelet aggregation was induced by 20µM ADP, and the maximum platelet aggregation rate in platelet-rich plasma was determined by platelet aggregometer, to evaluate and compare the effects of platelet aggregation in rats.

[4] = Stability test (influence factor test, Chinese Pharmacopoeia 2020 General Chapter 9001); conditions: for Decomposition product butylphthalide %: HPLC; for appearance / main peak and butylphthalide content: 30 days under open high-temperature and light exposure
Protocol: An appropriate amount of each compound to be tested was taken, and the influence factor test was conducted according to the General Chapter 9001 of Part 4 of the 2020 Edition of the Chinese Pharmacopoeia. The appearance of the compounds and the content of the main degradation product, butylphthalide, were detected respectively on day 0 and day 30 for each compound. The detection of butylphthalide was performed using high performance liquid chromatography, with a column packed with octadecylsilane-bonded silica gel, and a mobile phase of methanol-water (65:35).

SD rats = test: Repeated administration toxicity test in rats (14 days, tail vein); conditions: once daily for 14 consecutive days, n=10
[5] = Solubility test (Chinese Pharmacopoeia 2020 method); format: physicochemical
[6] = as stated for CN1523003A, background art; cited from earlier work
[7] = as stated for CN1523003A, background art; cited from earlier work; remark: listed apart in the source

For `NC12CC3CC(CC(C3)C1)C2` [Amantadine, amantadine, reference compound], the “extent of cerebral infarction compared with the model group” value (from here on “extent … compared with the model group”) (MCAO rats [1]) was “no significant inhibitory effect”, the “Percentage of cerebral infarction volume (%)” value (shortened to “Percentage … (%)”) (MCAO rats [1]; 0.016 mmol/kg) was 35.1±4.56% and the “neurological symptoms of rats compared with the model group” value (MCAO rats [2]) was “no significant improvement”. For the same compound, the “Score 2h” value (MCAO rats [2]; group dose 0.016 mmol/kg) was 2.5±1.08 and the “Score 24h” value (MCAO rats [2]; 0.016 mmol/kg) was 3.00±0.82.

In the case of `CC(=O)Oc1ccccc1C(=O)O` [Aspirin, reference compound], the “Maximum platelet aggregation rate (%)” value ([3]; ig 100 mg/kg) is reported as 27.00±6.48 % and the “platelet aggregation rate compared with the solvent control group” value [3] is reported as “highly significantly different”.

In the case of `CCCCC1OC(=O)c2ccccc21` (stereo not shown) [Butylphthalide, reference compound], the “extent … compared with the model group” value (MCAO rats [1]) is reported as “significantly reduced”, the “Percentage … (%)” value (MCAO rats [1]; 0.053 mmol/kg) is reported as 31.0±7.50 % and the “neurological symptoms of rats compared with the model group” value (MCAO rats [2]) is reported as “significantly improved”. For the same compound, the “Score 2h” value (MCAO rats [2]; group dose 0.053 mmol/kg) was 2.8±1.03, the “Score 24h” value (MCAO rats [2]; 0.053 mmol/kg) was 2.10±0.99 and the “Maximum platelet aggregation rate (%)” value ([3]; ig 200 mg/kg) was 57.50±9.05 %. For the same compound, the “platelet aggregation rate compared with the solvent control group” value [3] was “significantly different”.

With `CCCCC(O)c1ccccc1C(=O)O.NC12CC3CC(CC(C3)C1)C2` (stereo not shown) [Compound 1, amantadine 2-(1-hydroxypentyl)benzoate salt] the “extent … compared with the model group” value (MCAO rats [1]) was “significantly reduced”, the “Percentage … (%)” value (MCAO rats [1]; 0.016 mmol/kg) was 25.7±5.29 % and the “neurological symptoms of rats compared with the model group” value (MCAO rats [2]) was “highly significant”. The “Score 2h” value (MCAO rats [2]; group dose 0.016 mmol/kg) was 2.8±1.14, the “Score 24h” value (MCAO rats [2]; 0.016 mmol/kg) was 1.60±0.84 and the Property ([4]; 0 day) was “White powder”. For the same compound, the “Decomposition product butylphthalide %” value ([4]; 0 day) was 0.114%, the appearance [4] was “remains unchanged” and the “main peak and butylphthalide content” value [4] was “minimal variation”. For the same compound, the Property ([4]; high humidity RH92.5%, 30 days) was “White powder”, the “Decomposition product butylphthalide %” value ([4]; high humidity RH92.5%, 30 days) was 0.298% and the “Maximum platelet aggregation rate (%)” value ([3]; ig 200 mg/kg) was 34.60±9.57 %. The “Mortality rate (%)” value (SD rats; high dose 105 mg/kg) was 0%, the “Mortality rate (%)” value (SD rats; low dose 15 mg/kg) was 0% and the “Mortality rate (%)” value (SD rats; medium dose 45 mg/kg) was 0%.

With `CC1C2CC3CC(C2)CC1(N)C3.CCCCC(O)c1ccccc1C(=O)O` (stereo not shown) [Compound 3, 2-methyladamantan-1-amine 2-(1-hydroxypentyl)benzoate salt] the “Maximum platelet aggregation rate (%)” value ([3]; ig 200 mg/kg) was 37.50±9.42 %.

With `CC12CC3CC(C)(C1)CC(N)(C3)C2.CCCCC(O)c1ccccc1C(=O)O` (stereo not shown) [Compound 4, 3,5-dimethyladamantane-1-amine 2-(1-hydroxypentyl)benzoate salt] the “extent … compared with the model group” value (MCAO rats [1]) was “significantly reduced”, the “Percentage … (%)” value (MCAO rats [1]; 0.016 mmol/kg) was 25.1±4.41 % and the “neurological symptoms of rats compared with the model group” value (MCAO rats [2]) was “highly significant”. The “Score 2h” value (MCAO rats [2]; group dose 0.016 mmol/kg) was 2.7±1.16, the “Score 24h” value (MCAO rats [2]; 0.016 mmol/kg) was 1.50±0.53 and the Property ([4]; 0 day) was “White powder”. The “Decomposition product butylphthalide %” value ([4]; 0 day) was 0.107%, the appearance [4] was “remains unchanged” and the “main peak and butylphthalide content” value [4] was “minimal variation”. For the same compound, the Property ([4]; high humidity RH92.5%, 30 days) was “White powder”, the “Decomposition product butylphthalide %” value ([4]; high humidity RH92.5%, 30 days) was 0.258% and the “Maximum platelet aggregation rate (%)” value ([3]; ig 200 mg/kg) was 38.10±6.24 %. The “Mortality rate (%)” value (SD rats; high dose 105 mg/kg) was 0%, the “Mortality rate (%)” value (SD rats; low dose 15 mg/kg) was 0% and the “Mortality rate (%)” value (SD rats; medium dose 45 mg/kg) was 0%. The Solubility ([5]; medium Water, about 0.01 g sample in 9.0 ml) was “Completely soluble”, the Solubility ([5]; medium pH4.5, about 0.01 g sample in 9.0 ml) was “Completely soluble” and the Solubility ([5]; medium pH6.8, about 0.01 g sample in 9.0 ml) was “Completely soluble”.

With `CCCC12CC3CC(CC(N)(C3)C1)C2.CCCCC(O)c1ccccc1C(=O)O` (stereo not shown) [Compound 6, 3-n-propyladamantane-1-amine 2-(1-hydroxypentyl)benzoate salt] the “Maximum platelet aggregation rate (%)” value ([3]; ig 200 mg/kg) was 40.30±12.26 %.

In the case of `CCCCC(O)c1ccccc1C(=O)O.NC12CC3CC(C1)C(F)C(C3)C2` (stereo not shown) [Compound 7, 4-fluoroadamantane-1-amine 2-(1-hydroxypentyl)benzoate salt], the “Maximum platelet aggregation rate (%)” value ([3]; ig 200 mg/kg) is reported as 37.90±12.60 %.

For `CCCCC(O)c1ccccc1C(=O)O.N[C@@H]1[C@@H]2C[C@@H]3C[C@H]1C[C@@](O)(C3)C2` (stereo not drawn) [Compound 10, trans-1-hydroxyadamantan-4-amine 2-(1-hydroxypentyl)benzoate salt], the “extent … compared with the model group” value (MCAO rats [1]) was “significantly reduced”, the “Percentage … (%)” value (MCAO rats [1]; 0.016 mmol/kg) was 25.8±4.52 % and the “neurological symptoms of rats compared with the model group” value (MCAO rats [2]) was “highly significant”. For the same compound, the “Score 2h” value (MCAO rats [2]; group dose 0.016 mmol/kg) was 2.9±1.52, the “Score 24h” value (MCAO rats [2]; 0.016 mmol/kg) was 1.61±1.07 and the “Maximum platelet aggregation rate (%)” value ([3]; ig 200 mg/kg) was 38.20±12.25 %.

In the case of `CCCCC(O)c1ccccc1C(=O)O.NC1CCC(O)CC1` (stereo not shown) [Compound 13, 4-hydroxycyclohexan-1-amine 2-(1-hydroxypentyl)benzoate salt], the “Maximum platelet aggregation rate (%)” value ([3]; ig 200 mg/kg) is reported as 42.10±5.99 %.

For `CC1CC1N.CCCCC(O)c1ccccc1C(=O)O` (stereo not shown) [Compound 15, 2-methylcyclopropane-1-amine 2-(1-hydroxypentyl)benzoate salt], the “Maximum platelet aggregation rate (%)” value ([3]; ig 200 mg/kg) was 41.10±6.45 %.

With `CC(C)NC(C)C.CCCCC(O)c1ccccc1C(=O)O` (stereo not shown) [Diisopropylamine salt, 2-(1-hydroxypentyl)benzoic acid diisopropylamine salt, reference compound] the Property ([4]; 0 day) was “White powder”, the “Decomposition product butylphthalide %” value ([4]; 0 day) was 0.087% and the Property ([4]; high humidity RH92.5%, 30 days) was “White powder”. The “Decomposition product butylphthalide %” value ([4]; high humidity RH92.5%, 30 days) was 8.025%.

For `CCCCC(O)c1ccccc1C(=O)O.c1ccc(CNCCNCc2ccccc2)cc1` [N'N-dibenzylethylenediamine salt, reference compound], the “Maximum platelet aggregation rate (%)” value ([3]; ig 200 mg/kg) is given as 46.6±10.78 %, the “platelet aggregation rate compared with the solvent control group” value [3] is given as “highly significantly different” and the toxicity [6] is given as “lower toxicity”.

In the case of `CCCCC(O)c1ccccc1C(=O)[O-].[K+]` (stereo not shown) [Potassium salt, 2-(1-hydroxypentyl)benzoic acid potassium salt, reference compound], the “extent … compared with the model group” value (MCAO rats [1]) is given as “significantly reduced”, the “Percentage … (%)” value (MCAO rats [1]; 0.016 mmol/kg) is given as 29.7±5.72 % and the hygroscopicity [7] is given as “highly hygroscopic”. For the same compound, the “neurological symptoms of rats compared with the model group” value (MCAO rats [2]) was “significantly improved”, the “Score 2h” value (MCAO rats [2]; group dose 0.016 mmol/kg) was 2.9±0.99 and the “Score 24h” value (MCAO rats [2]; 0.016 mmol/kg) was 1.90±0.74. For the same compound, the Property ([4]; 0 day) was “White powder”, the “Decomposition product butylphthalide %” value ([4]; 0 day) was 0.090% and the Property ([4]; high humidity RH92.5%, 30 days) was “Partially deliquescent and liquefied”. The “Decomposition product butylphthalide %” value ([4]; high humidity RH92.5%, 30 days) was 25.687%, the “Maximum platelet aggregation rate (%)” value ([3]; ig 200 mg/kg) was 48.50±8.29 % and the “platelet aggregation rate compared with the solvent control group” value [3] was “highly significantly different”. The toxicity [6] was “greater toxicity”.

With `CC(C)(C)N.CCCCC(O)c1ccccc1C(=O)O` (stereo not shown) [Tert-butylamine salt, 2-(1-hydroxypentyl)benzoic acid tert-butylamine salt, reference compound] the Property ([4]; 0 day) was “White powder”, the “Decomposition product butylphthalide %” value ([4]; 0 day) was 0.041% and the Property ([4]; high humidity RH92.5%, 30 days) was “White powder”. For the same compound, the “Decomposition product butylphthalide %” value ([4]; high humidity RH92.5%, 30 days) was 10.214% and the toxicity [6] was “highly toxic”.

In the case of `CCCCC(O)c1ccccc1C(=O)O.NCc1ccccc1` (stereo not shown) [benzylamine salt], the toxicity [6] is given as “highly toxic”.

In the case of “Bicyclo[2,2,1]heptane-2-amine 2-(1-hydroxypentyl)benzoate salt [Compound 16]”, the “Maximum platelet aggregation rate (%)” value ([3]; ig 200 mg/kg) is reported as 44.10±5.15 %.

— patent EP4685128A1, “NOVEL 2-(1-HYDROXYPENTYL) BENZOIC ACID CYCLOALKYL AMINE SALT” (priority 2023, dated 2024)
